# Molecular target: T1, human 11βHSD1 enzyme (Homo sapiens, UniProt P28845)
# T1 construct: baculovirus expressed N terminal 6-His tagged full length human 11βHSD1 enzyme; 6-His (N); made in house
# Assay: 11βHSD1 cortisone to cortisol conversion, competitive HTRF assay
# Format: biochemical
# Details: human 11-βHSD; test concentration of 30 μM of compound
# Description: The evaluation of compounds described herein was carried out using a baculovirus expressed N terminal 6-His tagged full length human 11βHSD1 enzyme(*1). The enzyme was purified from a detergent solubilised cell lysate, using a copper chelate column. Inhibitors of 11βHSD1 reduce the conversion of cortisone to cortisol, which is identified by an increase in signal, in the above assay.
# Compounds to be tested were dissolved in dimethyl sulphoxide (DMSO) to 10 mM and diluted further in assay buffer containing 1% DMSO to 10 fold the final assay concentration. Diluted compounds were then plated into black 384 well plates (Matrix, Hudson N.H., USA).
# Fluorescence at 665 nm and 620 nm was measured and the 665 nm:620 nm ratio calculated using an Envision plate reader.
# T1 sequence (P28845 whole entry): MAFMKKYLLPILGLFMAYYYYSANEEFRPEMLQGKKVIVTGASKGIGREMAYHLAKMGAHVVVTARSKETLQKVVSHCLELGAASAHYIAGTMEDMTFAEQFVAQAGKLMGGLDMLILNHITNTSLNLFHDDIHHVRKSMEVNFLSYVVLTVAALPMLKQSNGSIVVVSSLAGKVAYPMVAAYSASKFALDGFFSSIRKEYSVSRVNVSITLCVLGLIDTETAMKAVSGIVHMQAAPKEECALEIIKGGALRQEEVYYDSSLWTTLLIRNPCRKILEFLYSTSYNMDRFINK
row,inhibition at 30 µM [%],SMILES
1,92.5,"O=C(N[C@H]1C2CC3CC1C[C@@](O)(C3)C2)c1cnc(N2CC(F)(F)C2)nc1C1CC1 [Example 52, 4-cyclopropyl-2-(3,3-difluoroazetidin-1-yl)-N-[(2r,5s)-5-hydroxyadamantan-2-yl]pyrimidine-5-carboxamide]"
2,102,"O=C(N[C@H]1C2CC3CC1C[C@@](O)(C3)C2)c1cnc(N2CCC2)nc1C1CC1 [Example 53, 2-(azetidin-1-yl)-4-cyclopropyl-N-[(2r,5s)-5-hydroxyadamantan-2-yl]pyrimidine-5-carboxamide]"
3,96.9,"COCCN1CCN(c2ncc(C(=O)N[C@H]3C4CC5CC3C[C@@](O)(C5)C4)c(C3CC3)n2)CC1 [Example 55, 4-cyclopropyl-N-[(2r,5s)-5-hydroxyadamantan-2-yl]-2-[4-(2-methoxyethyl)piperazin-1-yl]pyrimidine-5-carboxamide]"
4,95.6,"O=C(N[C@H]1C2CC3CC1C[C@@](O)(C3)C2)c1cnc(N2CCOC(CO)C2)nc1C1CC1 (some centres unmarked) [Example 59, 4-cyclopropyl-N-[(2r,5s)-5-hydroxyadamantan-2-yl]-2-[2-(hydroxymethyl)morpholin-4-yl]pyrimidine-5-carboxamide]"
5,98,"CS(=O)(=O)N1CCN(c2ncc(C(=O)N[C@H]3C4CC5CC3C[C@@](O)(C5)C4)c(C3CC3)n2)CC1 [Example 70, 4-cyclopropyl-N-[(2r,5s)-5-hydroxyadamantan-2-yl]-2-(4-methylsulfonylpiperazin-1-yl)pyrimidine-5-carboxamide]"
6,95.2,"O=C(N[C@H]1C2CC3CC1C[C@@](O)(C3)C2)c1cnc(N2CC[S+]([O-])CC2)nc1C1CCC1 [Example 82, 4-Cyclobutyl-N-[(2r,5 s)-5-hydroxyadamantan-2-yl]-2-(1-oxo-1,4-thiazinan-4-yl)pyrimidine-5-carboxamide]"
7,103,"O=C(N[C@H]1C2CC3CC1C[C@@](O)(C3)C2)c1cnc(N2CCS(=O)(=O)CC2)nc1C1CCC1 [Example 83, 4-Cyclobutyl-2-(1,1-dioxo-1,4-thiazinan-4-yl)-N-[(2r,5s)-5-hydroxyadamantan-2-yl]pyrimidine-5-carboxamide]"
8,97.5,"Nc1ncc(C(=O)N[C@H]2C3CC4CC2C[C@@](O)(C4)C3)c(C2CCC2)n1 [Example 84, 2-Amino-4-cyclobutyl-N-[(2r,5s)-5-hydroxyadamantan-2-yl]pyrimidine-5-carboxamide]"
9,88.8,"O=C(N[C@H]1C2CC3CC1C[C@@](O)(C3)C2)c1cnc(N2CCC2)nc1C1CCC1 [Example 85, 2-Azetidin-1-yl-4-cyclobutyl-N-[(2r,5s)-5-hydroxyadamantan-2-yl]pyrimidine-5-carboxamide]"
10,95.7,"COCCN1CCN(c2ncc(C(=O)N[C@H]3C4CC5CC3C[C@@](O)(C5)C4)c(C3CCC3)n2)CC1 [Example 87, 4-cyclobutyl-N-[(2r,5s)-5-hydroxyadamantan-2-yl]-2-[4-(2-methoxyethyl)piperazin-1-yl]pyrimidine-5-carboxamide]"

# Further lines, the compound ahead of its results:
row,SMILES,inhibition at 30 µM [%]
1,"O=C(N[C@H]1C2CC3CC1C[C@@](O)(C3)C2)c1cnc(NC2CCC2)nc1C1CC1 [Example 54, (cyclobutylamino)-4-cyclopropyl-N-[(2r,5s)-5-hydroxyadamantan-2-yl]pyrimidine-5-carboxamide]",102
2,"O=C(N[C@H]1C2CC3CC1C[C@@](O)(C3)C2)c1cnc(NC2CC2)nc1C1CC1 [Example 56, 4-cyclopropyl-2-(cyclopropylamino)-N-[(2r,5s)-5-hydroxyadamantan-2-yl]pyrimidine-5-carboxamide]",90.2
3,"O=C(N[C@H]1C2CC3CC1C[C@@](O)(C3)C2)c1cnc(NC2CCCC2)nc1C1CC1 [Example 57, 2-(cyclopentylamino)-4-cyclopropyl-N-[(2r,5s)-5-hydroxyadamantan-2-yl]pyrimidine-5-carboxamide]",102
4,"O=C(N[C@H]1C2CC3CC1C[C@@](O)(C3)C2)c1cnc(N2C[C@@H]3C[C@H]2CO3)nc1C1CC1 [Example 58, 4-cyclopropyl-N-[(2r,5s)-5-hydroxyadamantan-2-yl]-2-[(1S,4S)-2-oxa-5-azabicyclo[2.2.1]hept-5-yl]pyrimidine-5-carboxamide]",99.6
5,"O=C(N[C@H]1C2CC3CC1C[C@@](O)(C3)C2)c1cnc(N2CCOCC2CO)nc1C1CC1 (some centres unmarked) [Example 60, 4-cyclopropyl-N-[(2r,5s)-5-hydroxyadamantan-2-yl]-2-[3-(hydroxymethyl)morpholin-4-yl]pyrimidine-5-carboxamide]",95.1
6,"CN(C)c1ncc(C(=O)N[C@H]2C3CC4CC2C[C@@](O)(C4)C3)c(C2CC2)n1 [Example 61, 4-cyclopropyl-2-(dimethylamino)-N-[(2r,5s)-5-hydroxyadamantan-2-yl]pyrimidine-5-carboxamide]",105
7,"C[C@@H]1CN(c2ncc(C(=O)N[C@H]3C4CC5CC3C[C@@](O)(C5)C4)c(C3CC3)n2)C[C@H](C)N1 [Example 62, 4-cyclopropyl-2-[(3R,5S)-3,5-dimethylpiperazin-1-yl]-N-[(2r,5s)-5-hydroxyadamantan-2-yl]pyrimidine-5-carboxamide]",99.9
8,"C[C@@H]1CN(c2ncc(C(=O)N[C@H]3C4CC5CC3C[C@@](O)(C5)C4)c(C3CC3)n2)C[C@@H](C)O1 [Example 63, 4-cyclopropyl-2-[(2R,6R)-2,6-dimethylmorpholin-4-yl]-N-[(2r,5s)-5-hydroxyadamantan-2-yl]pyrimidine-5-carboxamide]",92.7
9,"CC(C)Nc1ncc(C(=O)N[C@H]2C3CC4CC2C[C@@](O)(C4)C3)c(C2CC2)n1 [Example 64, 4-cyclopropyl-N-[(2r,5s)-5-hydroxyadamantan-2-yl]-2-(isopropylamino)pyrimidine-5-carboxamide]",95.9
10,"O=C(N[C@H]1C2CC3CC1C[C@@](O)(C3)C2)c1cnc(NC2CCS(=O)(=O)CC2)nc1C1CC1 [Example 68, 4-cyclopropyl-2-[(1,1-dioxidotetrahydro-2H-thiopyran-4-yl)amino]-N-[(2r,5s)-5-hydroxyadamantan-2-yl]pyrimidine-5-carboxamide]",98.3
11,"O=C(N[C@H]1C2CC3CC1C[C@@](O)(C3)C2)c1cnc(NCCO)nc1C1CC1 [Example 69, 4-cyclopropyl-N-[(2r,5s)-5-hydroxyadamantan-2-yl]-2-[(2-hydroxyethyl)amino]pyrimidine-5-carboxamide]",102
12,"O=C(N[C@H]1C2CC3CC1C[C@@](O)(C3)C2)c1cnc(NCCN2CCOCC2)nc1C1CC1 [Example 72, 4-cyclopropyl-N-[(2r,5s)-5-hydroxyadamantan-2-yl]-2-[(2-morpholin-4-ylethyl)amino]pyrimidine-5-carboxamide]",91.6
13,"C[C@@H]1CN(CCNc2ncc(C(=O)N[C@H]3C4CC5CC3C[C@@](O)(C5)C4)c(C3CC3)n2)C[C@H](C)O1 [Example 73, 4-cyclopropyl-2-({2-[(2R,6S)-2,6-dimethylmorpholin-4-yl]ethyl}amino)-N-[(2r,5s)-5-hydroxyadamantan-2-yl]pyrimidine-5-carboxamide]",95.2
14,"CN1CCN(CCNc2ncc(C(=O)N[C@H]3C4CC5CC3C[C@@](O)(C5)C4)c(C3CC3)n2)CC1 [Example 74, 4-cyclopropyl-N-[(2r,5s)-5-hydroxyadamantan-2-yl]-2-{[2-(4-methylpiperazin-1-yl)ethyl]amino}pyrimidine-5-carboxamide]",88.5
15,"O=C(N[C@H]1C2CC3CC1C[C@@](O)(C3)C2)c1cnc(OC2CCC2)nc1C1CC1 [Example 75, 2-(Cyclobutyloxy)-4-cyclopropyl-N-[(2r,5 s)-5-hydroxyadamantan-2-yl]pyrimidine-5-carboxamide]",98.6
16,"CC(C)Oc1ncc(C(=O)N[C@H]2C3CC4CC2C[C@@](O)(C4)C3)c(C2CC2)n1 [Example 76, 4-cyclopropyl-N-[(2r,5s)-5-hydroxyadamantan-2-yl]-2-isopropoxypyrimidine-5-carboxamide]",96.1
17,"O=C(N[C@H]1C2CC3CC1C[C@@](O)(C3)C2)c1cnc(OC2CCCC2)nc1C1CC1 [Example 77, 2-(cyclopentyloxy)-4-cyclopropyl-N-[(2r,5s)-5-hydroxyadamantan-2-yl]pyrimidine-5-carboxamide]",90.9
18,"O=C(N[C@H]1C2CC3CC1C[C@@](O)(C3)C2)c1cnc(OC2COC2)nc1C1CC1 [Example 78, 4-cyclopropyl-N-[(2r,5s)-5-hydroxyadamantan-2-yl]-2-(oxetan-3-yloxy)pyrimidine-5-carboxamide]",93.1
19,"O=C(c1cnc(N2CCOCC2)nc1C1CC1)N1CCC(c2cccnc2)C1 (centres unmarked) [Example 79, (4-Cyclopropyl-2-morpholinopyrimidin-5-yl)(3-(pyridin-3-yl)pyrrolidin-1-yl)methanone]",89.7
20,"CC(=O)N1CCN(c2ncc(C(=O)N3CCC(c4cccnc4)C3)c(C3CC3)n2)CC1 (centres unmarked) [Example 80, 1-(4-(4-cyclopropyl-5-(3-(pyridin-3-yl)pyrrolidine-1-carbonyl)pyrimidin-2-yl)piperazin-1-yl)ethanone]",99.2
21,"C[C@@H]1CN(c2ncc(C(=O)N3CCC(c4cccnc4)C3)c(C3CC3)n2)C[C@H](C)O1 (stereo partly drawn) [Example 81, (4-cyclopropyl-2-((2S,6R)-2,6-dimethylmorpholino)pyrimidin-5-yl)(3-(pyridin-3-yl)pyrrolidin-1-yl)methanone]",100
22,"CN(C)c1ncc(C(=O)N[C@H]2C3CC4CC2C[C@@](O)(C4)C3)c(C2CCC2)n1 [Example 86, 4-cyclobutyl-2-(dimethylamino)-N-[(2r,5s)-5-hydroxyadamantan-2-yl]pyrimidine-5-carboxamide]",97

# From patent publication US20090264401A1, “SUBSTITUTED PYRIMIDIN-5-CARBOXAMIDES 281” (AstraZeneca AB, priority 2008, published 2009)
